Assay results from ChEMBL document CHEMBL5126614 (ACS Med Chem Lett, 2022).

Key:
[1] = target: Glucagon receptor (Homo sapiens, UniProt P47871); assay: Agonist activity at human GCGR expressed in frozen cells assessed as increase in cAMP production measured after 1 hr by HitHunter luminescence assay; assay type: functional, cell-based
[2] = organism: Homo sapiens; assay: Selectivity ratio of EC50 for human GCGR expressed in frozen cells to EC50 for human GLP1R expressed in frozen cells; assay type: cell-based
[3] = target: Glucagon-like peptide 1 receptor (Homo sapiens, UniProt P43220); assay: Agonist activity at human GLP1R expressed in frozen cells assessed as increase in cAMP production measured after 1 hr by HitHunter luminescence assay; assay type: functional, cell-based
[4] = organism: Macaca mulatta; assay: Selectivity ratio of EC50 for rhesus monkey GCGR to EC50 for rhesus monkey GLP1R
[5] = Agonist activity at rhesus monkey GLP1R; parameters: species or system Macaca mulatta
[6] = Agonist activity at rhesus monkey GCGR; parameters: species or system Macaca mulatta

Sequence of Glucagon receptor (P47871 whole entry): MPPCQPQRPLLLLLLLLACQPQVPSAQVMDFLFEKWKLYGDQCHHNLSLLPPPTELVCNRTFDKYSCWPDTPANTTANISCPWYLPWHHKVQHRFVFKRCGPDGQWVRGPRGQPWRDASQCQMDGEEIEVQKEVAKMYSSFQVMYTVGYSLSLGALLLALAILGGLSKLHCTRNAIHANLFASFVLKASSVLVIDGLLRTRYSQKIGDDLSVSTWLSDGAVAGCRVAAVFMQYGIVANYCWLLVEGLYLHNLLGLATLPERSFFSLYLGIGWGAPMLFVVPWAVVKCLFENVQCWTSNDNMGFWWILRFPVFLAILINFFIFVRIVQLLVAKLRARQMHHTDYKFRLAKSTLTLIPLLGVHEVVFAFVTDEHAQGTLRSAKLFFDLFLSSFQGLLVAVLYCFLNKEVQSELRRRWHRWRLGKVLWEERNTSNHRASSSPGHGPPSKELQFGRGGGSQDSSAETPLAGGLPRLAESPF
Sequence of Glucagon-like peptide 1 receptor (P43220 whole entry): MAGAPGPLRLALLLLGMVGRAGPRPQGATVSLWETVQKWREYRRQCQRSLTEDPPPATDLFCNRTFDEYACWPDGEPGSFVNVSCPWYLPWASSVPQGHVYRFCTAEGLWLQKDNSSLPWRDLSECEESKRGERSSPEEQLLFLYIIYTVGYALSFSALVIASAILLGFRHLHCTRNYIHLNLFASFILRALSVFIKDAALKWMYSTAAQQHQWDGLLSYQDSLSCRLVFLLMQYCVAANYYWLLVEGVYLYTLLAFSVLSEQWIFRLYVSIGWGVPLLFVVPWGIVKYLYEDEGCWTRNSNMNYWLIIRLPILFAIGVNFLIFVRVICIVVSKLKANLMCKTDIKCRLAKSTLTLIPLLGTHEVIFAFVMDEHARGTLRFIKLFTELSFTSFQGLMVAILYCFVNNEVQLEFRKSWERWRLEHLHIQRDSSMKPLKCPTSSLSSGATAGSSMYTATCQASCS

Molecule	EC50 [1] [nM]	EC50 [3] [nM]	Ratio EC50 [4]	EC50 [5] [nM]	EC50 [6] [nM]	Ratio EC50 [2]
CCCCCCCCCCCCCCCC(=O)N[C@@H](CCC(=O)N[C@@H](CCC(=O)NCCCC[C@H](NC(=O)[C@H](CC(=O)O)NC(=O)[C@H](CO)NC(=O)[C@@H](NC(=O)[C@H](Cc1ccccc1)NC(=O)[C@@H](NC(=O)CNC(=O)[C@H](CCC(N)=O)NC(=O)C(C)(C)NC(=O)[C@@H](N)Cc1cnc[nH]1)[C@@H](C)O)[C@@H](C)O)C(=O)N[C@@H](CO)C(=O)N[C@@H](CCCCN)C(=O)N[C@@H](Cc1ccc(O)cc1)C(=O)N[C@@H](CC(C)C)C(=O)N[C@@H](CC(=O)O)C(=O)NC(C)(C)C(=O)N[C@@H](CCCNC(=N)N)C(=O)N[C@@H](CCCNC(=N)N)C(=O)N[C@@H](C)C(=O)N[C@@H](CCC(N)=O)C(=O)N[C@@H](CC(=O)O)C(=O)N[C@@H](Cc1ccccc1)C(=O)N[C@H](C(=O)N[C@@H](CCC(N)=O)C(=O)N[C@@H](Cc1c[nH]c2ccccc12)C(=O)N[C@@H](CC(C)C)C(=O)N[C@@H](CCSC)C(=O)N[C@@H](CC(N)=O)C(=O)N[C@H](C(=O)N[C@@H](CCCCNC(=O)CC[C@H](N)C(=O)O)C(N)=O)[C@@H](C)O)C(C)C)C(=O)O)C(=O)O	0.06	0.04				1.5
CCCCCCCCCCCCCCCC(=O)N[C@@H](CCC(=O)N[C@@H](CCC(=O)NCCCC[C@H](NC(=O)[C@H](CC(=O)O)NC(=O)[C@H](CO)NC(=O)[C@@H](NC(=O)[C@H](Cc1ccccc1)NC(=O)[C@@H](NC(=O)CNC(=O)[C@H](CCC(N)=O)NC(=O)C(C)(C)NC(=O)[C@@H](N)Cc1cnc[nH]1)[C@@H](C)O)[C@@H](C)O)C(=O)N[C@@H](CO)C(=O)N[C@@H](CCCCN)C(=O)N[C@@H](Cc1ccc(O)cc1)C(=O)N[C@@H](CC(C)C)C(=O)N[C@@H](CC(=O)O)C(=O)NC(C)(C)C(=O)N[C@@H](CCCNC(=N)N)C(=O)N[C@@H](CCCNC(=N)N)C(=O)N[C@@H](C)C(=O)N[C@@H](CCC(N)=O)C(=O)N[C@@H](CC(=O)O)C(=O)N[C@@H](Cc1ccccc1)C(=O)N[C@H](C(=O)N[C@@H](CCC(N)=O)C(=O)N[C@@H](Cc1c[nH]c2ccccc12)C(=O)N[C@@H](CC(C)C)C(=O)N[C@@H](CC(C)C)C(=O)N[C@@H](CC(N)=O)C(=O)N[C@H](C(=O)N[C@@H](CCCCNC(=O)CC[C@H](N)C(=O)O)C(N)=O)[C@@H](C)O)C(C)C)C(=O)O)C(=O)O	0.006	0.005				1.2
CCCCCCCCCCCCCCCC(=O)N[C@@H](CCC(=O)N[C@@H](CCC(=O)NCCCC[C@H](NC(=O)[C@H](CC(=O)O)NC(=O)[C@H](CO)NC(=O)[C@@H](NC(=O)[C@H](Cc1ccccc1)NC(=O)[C@@H](NC(=O)CNC(=O)[C@H](CCC(N)=O)NC(=O)C(C)(C)NC(=O)[C@@H](N)Cc1cnc[nH]1)[C@@H](C)O)[C@@H](C)O)C(=O)N[C@@H](CO)C(=O)N[C@@H](CCCCN)C(=O)N[C@@H](Cc1ccc(O)cc1)C(=O)N[C@@H](CC(C)C)C(=O)N[C@@H](CC(=O)O)C(=O)NC(C)(C)C(=O)N[C@@H](CCCNC(=N)N)C(=O)N[C@@H](C)C(=O)N[C@@H](C)C(=O)N[C@@H](CCC(N)=O)C(=O)N[C@@H](CC(=O)O)C(=O)N[C@@H](Cc1ccccc1)C(=O)N[C@H](C(=O)N[C@@H](CCC(N)=O)C(=O)N[C@@H](Cc1c[nH]c2ccccc12)C(=O)N[C@@H](CC(C)C)C(=O)N[C@@H](CCSC)C(=O)N[C@@H](CC(=O)O)C(=O)N[C@H](C(=O)N[C@@H](CCCCNC(=O)CC[C@H](N)C(=O)O)C(N)=O)[C@@H](C)O)C(C)C)C(=O)O)C(=O)O	0.048	0.022	9.1	0.007	0.064	2.1
CCCCCCCCCCCCCCCC(=O)N[C@@H](CCC(=O)N[C@@H](CCC(=O)NCCCC[C@H](NC(=O)[C@H](CC(=O)O)NC(=O)[C@H](CO)NC(=O)[C@@H](NC(=O)[C@H](Cc1ccccc1)NC(=O)[C@@H](NC(=O)CNC(=O)[C@H](CCC(N)=O)NC(=O)C(C)(C)NC(=O)[C@@H](N)Cc1cnc[nH]1)[C@@H](C)O)[C@@H](C)O)C(=O)N[C@@H](CO)C(=O)N[C@@H](CCCCN)C(=O)N[C@@H](Cc1ccc(O)cc1)C(=O)N[C@@H](CC(C)C)C(=O)N[C@@H](CC(=O)O)C(=O)NC(C)(C)C(=O)N[C@@H](CCCNC(=N)N)C(=O)N[C@@H](CCCNC(=N)N)C(=O)N[C@@H](C)C(=O)N[C@@H](CCC(N)=O)C(=O)N[C@@H](CC(=O)O)C(=O)N[C@@H](Cc1ccccc1)C(=O)N[C@H](C(=O)N[C@@H](CCC(N)=O)C(=O)N[C@@H](Cc1c[nH]c2ccccc12)C(=O)N[C@@H](CC(C)C)C(=O)N[C@@H](CCSC)C(=O)N[C@@H](CC(N)=O)C(=O)N[C@H](C(N)=O)[C@@H](C)O)C(C)C)C(=O)O)C(=O)O	0.035	0.02				1.8
CCCCCCCCCCCCCCCC(=O)N[C@@H](CCC(=O)N[C@@H](CCC(=O)NCCCC[C@H](NC(=O)[C@H](CC(=O)O)NC(=O)[C@H](CO)NC(=O)[C@@H](NC(=O)[C@H](Cc1ccccc1)NC(=O)[C@@H](NC(=O)CNC(=O)[C@H](CCC(N)=O)NC(=O)C(C)(C)NC(=O)[C@@H](N)Cc1cnc[nH]1)[C@@H](C)O)[C@@H](C)O)C(=O)N[C@@H](CO)C(=O)N[C@@H](CCCCN)C(=O)N[C@@H](Cc1ccc(O)cc1)C(=O)N[C@@H](CC(C)C)C(=O)N[C@@H](CC(=O)O)C(=O)NC(C)(C)C(=O)N[C@@H](CCCNC(=N)N)C(=O)N[C@@H](C)C(=O)N[C@@H](C)C(=O)N[C@@H](CCC(N)=O)C(=O)N[C@@H](CC(=O)O)C(=O)N[C@@H](Cc1ccccc1)C(=O)N[C@H](C(=O)N[C@@H](CCC(N)=O)C(=O)N[C@@H](Cc1c[nH]c2ccccc12)C(=O)N[C@@H](CC(C)C)C(=O)N[C@@H](CC(C)C)C(=O)N[C@@H](CC(N)=O)C(=O)N[C@H](C(=O)N[C@@H](CCCCNC(=O)CC[C@H](N)C(=O)O)C(N)=O)[C@@H](C)O)C(C)C)C(=O)O)C(=O)O	0.058	0.029	2.4	0.14	0.334	2
GLUCAGON				0.038	0.003	

More lines, main results first:

EC50 [1] [nM]	EC50 [3] [nM]	Ratio EC50 [4]	EC50 [5] [nM]	EC50 [6] [nM]	Molecule	Ratio EC50 [2]
0.073	0.074	0.5	0.019	0.01	CCCCCCCCCCCCCCCC(=O)N[C@@H](CCC(=O)N[C@@H](CCC(=O)NCCCC[C@H](NC(=O)[C@H](CC(=O)O)NC(=O)[C@H](CO)NC(=O)[C@@H](NC(=O)[C@H](Cc1ccccc1)NC(=O)[C@@H](NC(=O)CNC(=O)[C@H](CCC(N)=O)NC(=O)[C@@H](CO)NC(=O)[C@@H](N)Cc1cnc[nH]1)[C@@H](C)O)[C@@H](C)O)C(=O)N[C@@H](CO)C(=O)N[C@@H](CCCCN)C(=O)N[C@@H](Cc1ccc(O)cc1)C(=O)N[C@@H](CC(C)C)C(=O)N[C@@H](CC(=O)O)C(=O)NC(C)(C)C(=O)N[C@@H](CCCNC(=N)N)C(=O)N[C@@H](C)C(=O)N[C@@H](C)C(=O)N[C@@H](CCC(N)=O)C(=O)N[C@@H](CC(=O)O)C(=O)N[C@@H](Cc1ccccc1)C(=O)N[C@H](C(=O)N[C@@H](CCC(N)=O)C(=O)N[C@@H](Cc1c[nH]c2ccccc12)C(=O)N[C@@H](CC(C)C)C(=O)N[C@@H](CC(C)C)C(=O)N[C@@H](CC(=O)O)C(=O)N[C@H](C(N)=O)[C@@H](C)O)C(C)C)C(=O)O)C(=O)O	1
0.039	0.034	2.6	0.009	0.022	CCCCCCCCCCCCCCCC(=O)N[C@@H](CCC(=O)N[C@@H](CCC(=O)NCCCC[C@H](NC(=O)[C@H](CC(=O)O)NC(=O)[C@H](CO)NC(=O)[C@@H](NC(=O)[C@H](Cc1ccccc1)NC(=O)[C@@H](NC(=O)CNC(=O)[C@H](CCC(N)=O)NC(=O)C(C)(C)NC(=O)[C@@H](N)Cc1cnc[nH]1)[C@@H](C)O)[C@@H](C)O)C(=O)N[C@@H](CO)C(=O)N[C@@H](CCCCN)C(=O)N[C@@H](Cc1ccc(O)cc1)C(=O)N[C@@H](CC(C)C)C(=O)N[C@@H](CC(=O)O)C(=O)NC(C)(C)C(=O)N[C@@H](CCCNC(=N)N)C(=O)N[C@@H](C)C(=O)N[C@@H](C)C(=O)N[C@@H](CCC(N)=O)C(=O)N[C@@H](CC(=O)O)C(=O)N[C@@H](Cc1ccccc1)C(=O)N[C@H](C(=O)N[C@@H](CCC(N)=O)C(=O)N[C@@H](Cc1c[nH]c2ccccc12)C(=O)N[C@@H](CC(C)C)C(=O)N[C@@H](CC(C)C)C(=O)N[C@@H](CC(=O)O)C(=O)N[C@H](C(N)=O)[C@@H](C)O)C(C)C)C(=O)O)C(=O)O	1.1
0.062		0.9	0.021	0.018	CCCCCCCCCCCCCCCC(=O)N[C@@H](CCC(=O)N[C@@H](CCC(=O)NCCCC[C@H](NC(=O)[C@H](CC(=O)O)NC(=O)[C@H](CO)NC(=O)[C@@H](NC(=O)[C@H](Cc1ccccc1)NC(=O)[C@@H](NC(=O)CNC(=O)[C@H](CCC(N)=O)NC(=O)[C@@H](CO)NC(=O)[C@@H](N)Cc1cnc[nH]1)[C@@H](C)O)[C@@H](C)O)C(=O)N[C@@H](CO)C(=O)N[C@@H](CCCCN)C(=O)N[C@@H](Cc1ccc(O)cc1)C(=O)N[C@@H](CC(C)C)C(=O)N[C@@H](CC(=O)O)C(=O)N[C@H](C(=O)N[C@@H](CCCNC(=N)N)C(=O)N[C@@H](C)C(=O)N[C@@H](C)C(=O)N[C@@H](CCC(N)=O)C(=O)N[C@@H](CC(=O)O)C(=O)N[C@@H](Cc1ccccc1)C(=O)N[C@H](C(=O)N[C@@H](CCC(N)=O)C(=O)N[C@@H](Cc1c[nH]c2ccccc12)C(=O)N[C@@H](CC(C)C)C(=O)N[C@@H](CC(C)C)C(=O)N[C@@H](CC(=O)O)C(=O)N[C@H](C(N)=O)[C@@H](C)O)C(C)C)C(C)C)C(=O)O)C(=O)O	0.5
